The structures appear in SMILES notation. Counter-ions that a name gives are not always drawn. Like-named read-outs stand apart in the source and are kept apart here. Bounds are passed on as bounds.

Data set [1] concerns HSV-1. Briefly: Inactivation of HSV-1, plaque assay on Vero or HeLa cells (Example 1). Type of data set: cell-based, herpes simplex virus type I. Conditions: Human alphaherpesvirus 1, 1 h, one hour at 37° C., versus water control, read-out: Concentration Producing 50% Virus Inhibition.
Data set [2] deals with HSV-1. Conditions: guinea pig, in vivo.
The next data set relates to HSV-1, Stohr strain. Put plainly: In vivo treatment of HSV-1 skin infection in guinea pigs (Example 5). Conditions: 2 percent in 5 percent ethanol, topical hourly.
In data set [3] the test system is HSV-2. Put plainly: Inactivation of one strain of HSV-2 (Example 3). The conditions noted are these: Human alphaherpesvirus 2, 1 h, read-out: concentration for ninety nine percent inactivation.
In another data set the test system is influenza. Put plainly: Inactivation of influenza virus (Example 2). Conditions: unidentified influenza virus, 1 h. Type of data set: cell-based.
Data set [4] deals with VSV (vesicular stomatitis virus). Put plainly: microbe, parasite or virus in culture. The format is cell-based. The conditions noted are these: 1 h.
Data set [5] concerns HSV-2. The conditions noted are these: guinea pig, in vivo.
The test system of a further data set is poliovirus. The format is cell-based. The conditions noted are these: poliovirus (picorna viruses).
The test system of a further data set is rhinovirus. Put plainly: Inactivation of rhinovirus (Example 2). Type of data set: cell-based.
Another data set deals with mice. Conditions: cited from earlier work.
The test system of the next data set is vaccinia virus. Put plainly: microbe, parasite or virus in culture. Type of data set: cell-based. The conditions noted are these: Orthopoxvirus vaccinia, 1 h, read-out: concentration for 50 percent inactivation.
In data set [6] the test system is HSV-1. Briefly: Inactivation of HSV-1 (Example 2). Type of data set: cell-based, herpes simplex virus type I. Conditions: Human alphaherpesvirus 1, 1 h.
Data set [7] has as its system NDV (Newcastle's disease virus). Briefly: organism not typed. The format is cell-based. Conditions: 1 h, read-out: concentration for fifty percent inactivation.
Data set [8] deals with SFV (semliki forest virus). Briefly: Inactivation of SFV (Example 2). The format is cell-based. Conditions: 1 h, one hour exposure, read-out: concentration for fifty percent inactivation.
The subject of data set [9] is HSV-1. Briefly: Inactivation of two strains of HSV-1 (Example 3). Conditions: Human alphaherpesvirus 1, 1 h, read-out: concentration for ninety nine percent inactivation.
Data set [10] has as its system HSV-2. Put plainly: In vivo treatment of genital cutaneous mucosa infected with HSV-2 (Example 8). Conditions: all the animals, including placebo and control.
Setting [11] is: read-out: concentration for fifty percent inactivation.

Consider `CCCCCCCCCCOc1ccc(C(=O)CCN2CCCCC2)cc1` [4'-n-Decyloxy-3-piperidino-propiophenone . HCl], for which the IC50 with HSV-1 [1] was under 125 µM.

With `CCCOc1ccc(C(=O)CCN2CCCCC2)cc1` [4'-Propoxy-3-piperidino-propiophenone . HCl], the IC50 in the data set on HSV-1 [1] is 400 µM.

Consider `CCCCOc1ccc(C(=O)CCN2CCCCC2)cc1` [Dyclonine . HCl, 4-n-butoxy-β-(1-piperidyl)-propiophenone hydrochloride], for which the “Candida (yeast) infection” value in the data set with HSV-1 [2] was “a Candida (yeast) infection developed”. Besides, the “sites with herpes lesions” value is reported as 31% of the sites in the data set on HSV-1, Stohr strain (48 hours after inoculation, placebo 88 percent) and 7% of the sites with HSV-1, Stohr strain (by 72 hours). In addition, the IC99 with HSV-2 [3] and in the data set on HSV-1 [9] was under 1000 µM throughout. Besides, the IC50 was at most 1 mM in the data set on influenza (setting [11]); at most 1 mM in data set [4] (setting [11]); 125 µM in the data set with HSV-1 [1]; at most 2 mM in the data set with vaccinia virus; at most 1 mM in the data set with HSV-1 [6] (setting [11]); at most 1 mM in [7]. In addition, in data set [8], the IC50 was at most 1 mM. Moreover, the killing at 500 µM is about 80% in the data set with influenza (read-out: inactivation of influenza virus), over 99% in [4] (read-out: inactivation of VSV) and over 90% in the data set with HSV-1 [6] (read-out: inactivation of HSV). For the same compound, the detrimental adverse reactions result in the data set on HSV-2 [5] was “No detrimental adverse reactions were observed”. Further, the hyperkeratosis entry is reported as “mild hyperkeratosis noted in some of the animals” in the data set on HSV-2 [5] and “hyperkeratosis was noted in all the animals” with HSV-2 [10]. Further, the percent inactivated result in the data set on poliovirus and with rhinovirus was “less than 50%” each time. The results for the “acute LD50” value with mice (intraperitoneal injection) and in the data set with mice (intravenous) were 52.8 mg/kg and 19.5 mg/kg, respectively.

In the case of `O=C(CCN1CCCCC1)c1cccc(Cl)c1` [3'-Chloro-3-piperidino-propiophenone . HCl], the IC50 in the data set with HSV-1 [1] was 125 µM.

With `O=C(CCN1CCCCC1)c1ccc(Cl)c(Cl)c1` [3',4'-Dichloro-3-piperidino-propiophenone . HCl], in the data set on HSV-1 [1], the IC50 was under 125 µM.

As to `CCOc1ccc(N=C(C)Nc2ccc(OCC)cc2)cc1` [phenacaine . HCl], in the data set with HSV-1 [1], the IC50 was over 2000 µM.

Regarding `CCCCOc1ccc(C(=O)CC[N+]2(C)CCCCC2)cc1` [1-[2-(4-butoxybenzoyl)-ethyl]-1-methyl piperidinium iodide], in the data set on HSV-1 [1], the IC50 was under 125 µM.

Consider `CCCCOc1ccc(C(=O)CCN(CC)CC)cc1` [4'-Butoxy-3-diethylamino-propiophenone . HCl], for which the IC50 in the data set with HSV-1 [1] is under 125 µM.

With `CC(C)COc1ccc(C(=O)CCN2CCCCC2)cc1` [4'-Isobutoxy-3-piperidino-propiophenone . HCl], in the data set with HSV-1 [1], the IC50 turned out to be 200 µM.

Take `CCCCOc1ccc(C(=O)C(C)C[N+]2(C)CCCCC2)cc1` (stereo not drawn) [1-[2-(4-butoxybenzoyl)-2-methylethyl]-1-methyl-piperidinium iodide]: the IC50 in the data set on HSV-1 [1] was over 750 µM.

Consider `CCOc1ccc(C(=O)CCN2CCCCC2)cc1` [4'-Ethoxy-3-piperidino-propiophenone . HCl], for which the IC50 in the data set on HSV-1 [1] is 1500 µM.

Turning to `CCCCOc1cc(C(=O)OCCN(CC)CC)ccc1N` [benoxinate . HCl], the IC50 in the data set on HSV-1 [1] is over 2000 µM.

For `CCCOc1ccc(C(=O)OCCN(CC)CC)cc1N` [proparacaine . HCl], the IC50 in the data set on HSV-1 [1] is over 2000 µM.

`CCCCOc1ccc(OCCCN2CCOCC2)cc1` [pramoxine . HCl]: in the data set with HSV-1 [1], the IC50 was 675 µM.

For `CCN(CC)CCOC(=O)c1ccc(N)cc1` [procaine . HCl], the IC50 in the data set on HSV-1 [1] is over 2000 µM.

In the case of `CCN(CC)CC(=O)Nc1c(C)cccc1C` [lidocaine . HCl], the IC50 in the data set with HSV-1 [1] is over 2000 µM.

Take `CCOC(=O)c1ccc(N)cc1` [benzocaine]: the IC50 in the data set on HSV-1 [1] was over 2000 µM.

Turning to `CCCCOc1cc(C(=O)NCCN(CC)CC)c2ccccc2n1` [dibucaine . HCl], the IC50 in the data set on HSV-1 [1] was 800 µM.

Take `COc1ccc(C(=O)CCN2CCCCC2)cc1` [4-Methoxy-3-piperidino propiophenone . HCl]: the IC50 in the data set with HSV-1 [1] is 125 µM.

`CCCCCCCCOc1ccc(C(=O)CCN2CCCCC2)cc1` [4'-n-Octyloxy-3-piperidino-propiophenone . HCl]: in the data set with HSV-1 [1], the IC50 is under 125 µM.

Consider `CCCCNc1ccc(C(=O)OCCN(C)C)cc1` [tetracaine . HCl], for which the IC50 with HSV-1 [1] was over 2000 µM.

Regarding `CC(=O)C(CN1CCCCC1)c1ccccc1` (stereo not drawn) [3-Phenyl-4-piperidino-2-butanone . HCl], the IC50 in the data set on HSV-1 [1] amounted to 550 µM.

`CCCCCCOc1ccc(C(=O)CCN2CCCCC2)cc1` [4'-Hexyloxy-3-piperidino-propiophenone . HCl]: the IC50 in the data set on HSV-1 [1] was under 125 µM.

Take `CCCCOc1ccc(C(=O)CCN2CCOCC2)cc1`: in the data set on HSV-1 [1], the IC50 is 125 µM.

Source of the values: patent publication US4333941A, “Inhibition of enveloped viruses with phenyl ketones” (The Dow Chemical Company, priority 1977, dated 1982).
